# Source: BindingDB's records for doi:10.1021/jm021079g (Academy of Sciences of The Czech Republic, 2003)
# Biological target: T1, Dimer of Gag-Pol polyprotein [501-599] (Human immunodeficiency virus 1, UniProt P03367)
# T1 construct: 501-599
# Test: Protease Inhibition Assay
# Settings: pH 4.7
# Protocol: Inhibition constants were determined by a spectrophotometric assay with the chromogenic peptide substrate.
row,Compound,Ki [nM]
1,CC(C)(C)OC(=O)N[C@@H](Cc1ccccc1)[C@@H](O)CN[C@@H](Cc1ccccc1)C(=O)N[C@@H](CCC(N)=O)C(=O)N[C@@H](Cc1ccccc1)C(N)=O,33
2,CC(C)(C)OC(=O)N[C@@H](Cc1ccccc1)[C@@H](O)CN[C@@H](Cc1ccccc1)C(=O)N[C@@H](CCC(=O)O)C(=O)N[C@@H](Cc1ccccc1)C(N)=O,0.15
